Assays:
[1] = system: NCI-H460; test: Antitumor activity against human NCI-H460 cells assessed as inhibition of cell growth by MTT assay; assay type: functional, cell-based
[2] = system: Hep 3B2; test: Antitumor activity against human Hep3B cells assessed as inhibition of cell growth by MTT assay; assay type: functional, cell-based
[3] = system: NCI-H1299; test: Antitumor activity against human NCI-H1299 cells assessed as inhibition of cell growth by MTT assay; assay type: functional, cell-based
[4] = system: MDA-MB-231; test: Antitumor activity against human MDA-MB-231 cells assessed as inhibition of cell growth by MTT assay; assay type: functional, cell-based
[5] = system: HCT-116; test: Antitumor activity against human HCT-116 cells assessed as inhibition of cell growth by MTT assay; assay type: functional, cell-based
[6] = system: A549; test: Antitumor activity against human A549 cells assessed as inhibition of cell growth by MTT assay; assay type: functional, cell-based
[7] = system: HT-22; test: Cytotoxicity against mouse HT-22 cells assessed as reduction in cell viability at 10 uM relative to control; assay type: toxicity, cell-based; conditions: ht-22, 10 µM
[8] = Cytotoxicity against human RPE cells assessed as reduction in cell viability at 50 uM relative to control; assay type: toxicity, cell-based
[9] = Cytotoxicity against human RPE cells assessed as reduction in cell viability at 10 uM relative to control; assay type: toxicity, cell-based
[10] = system: HT-22; test: Cytotoxicity against mouse HT-22 cells assessed as reduction in cell viability at 50 uM relative to control; assay type: toxicity, cell-based; conditions: ht-22, 50 µM

Structure (SMILES) | IC50 [1] | IC50 [2] | IC50 [3] | IC50 [4] | IC50 [5] | IC50 [6] | Activity [7] | Activity [8] | Activity [9] | Activity [10]
COc1ccc2c(c1)OC[C@H]1c3ccc(O)cc3O[C@@H]21 | > 10 µM | > 10 µM | > 10 µM | > 10 µM | > 10 µM | > 10 µM | – | – | – | –
CC1(C)C=Cc2cc3c(cc2O1)OC[C@H]1c2ccc(OCCN4CCNCC4)cc2O[C@@H]31 | 4.3 µM | > 10 µM | 8.3 µM | 6.7 µM | 4.4 µM | 6.7 µM | > 70% | Non-Toxic | > 70% | Toxic
CC1(C)C=Cc2c(ccc3c2OC[C@H]2c4ccccc4O[C@@H]32)O1 | > 10 µM | > 10 µM | > 10 µM | > 10 µM | > 10 µM | > 10 µM | – | – | – | –
CC1(C)C=Cc2c(ccc3c2OC[C@H]2c4ccc([N+](=O)[O-])cc4O[C@@H]32)O1 | > 10 µM | > 10 µM | > 10 µM | > 10 µM | > 10 µM | > 10 µM | – | – | – | –
CC1(C)C=Cc2c(ccc3c2OC[C@H]2c4ccc(OCCN5CCOCC5)cc4O[C@@H]32)O1 | > 10 µM | > 10 µM | > 10 µM | > 10 µM | > 10 µM | > 10 µM | – | – | – | –
CC1(C)C=Cc2cc3c(cc2O1)OC[C@H]1c2ccccc2O[C@@H]31 | > 10 µM | > 10 µM | > 10 µM | > 10 µM | > 10 µM | > 10 µM | – | – | – | –
CC1(C)C=Cc2cc3c(cc2O1)OC[C@H]1c2ccc(NS(C)(=O)=O)cc2O[C@@H]31 | > 10 µM | > 10 µM | > 10 µM | > 10 µM | > 10 µM | > 10 µM | – | – | – | –
CC1(C)C=Cc2c(ccc3c2OC[C@H]2c4ccc(NS(C)(=O)=O)cc4O[C@@H]32)O1 | > 10 µM | > 10 µM | > 10 µM | > 10 µM | > 10 µM | > 10 µM | – | – | – | –
COc1ccc2c(c1)O[C@H]1c3ccc4c(c3OC[C@@H]21)C=CC(C)(C)O4 | > 10 µM | > 10 µM | > 10 µM | > 10 µM | > 10 µM | > 10 µM | – | – | – | –
CN1CCN(CCOc2ccc3c(c2)O[C@H]2c4ccc5c(c4OC[C@@H]32)C=CC(C)(C)O5)CC1 | 4.2 µM | > 10 µM | 6.6 µM | > 10 µM | 5.2 µM | 6.5 µM | > 70% | Non-Toxic | > 70% | Toxic
CC1(C)C=Cc2cc3c(cc2O1)OC[C@H]1c2ccc(N)cc2O[C@@H]31 | > 10 µM | > 10 µM | > 10 µM | > 10 µM | > 10 µM | > 10 µM | – | – | – | –
CC(=O)Nc1ccc2c(c1)O[C@H]1c3cc4c(cc3OC[C@@H]21)OC(C)(C)C=C4 | > 10 µM | > 10 µM | > 10 µM | > 10 µM | > 10 µM | > 10 µM | – | – | – | –
CC(=O)Nc1ccc2c(c1)O[C@H]1c3ccc4c(c3OC[C@@H]21)C=CC(C)(C)O4 | > 10 µM | > 10 µM | > 10 µM | > 10 µM | > 10 µM | > 10 µM | – | – | – | –
C#CC(C)(C)Oc1ccc2c(c1)OC[C@H]1c3ccc(O)cc3O[C@@H]21 | > 10 µM | > 10 µM | > 10 µM | > 10 µM | > 10 µM | > 10 µM | – | – | – | –
CN(C)CCOc1ccc2c(c1)O[C@H]1c3ccc4c(c3OC[C@@H]21)C=CC(C)(C)O4 | 5.7 µM | > 10 µM | 9.6 µM | > 10 µM | 7 µM | 8.1 µM | > 70% | Non-Toxic | > 70% | Toxic
CC1(C)C=Cc2cc3c(cc2O1)OC[C@H]1c2ccc([N+](=O)[O-])cc2O[C@@H]31 | > 10 µM | > 10 µM | > 10 µM | > 10 µM | > 10 µM | > 10 µM | – | – | – | –
COc1ccc2c(c1)O[C@H]1c3cc4c(cc3OC[C@@H]21)OC(C)(C)C=C4 | > 10 µM | > 10 µM | > 10 µM | > 10 µM | > 10 µM | > 10 µM | – | – | – | –
COCCOc1ccc2c(c1)O[C@H]1c3cc4c(cc3OC[C@@H]21)OC(C)(C)C=C4 | > 10 µM | > 10 µM | > 10 µM | > 10 µM | > 10 µM | > 10 µM | – | – | – | –
CC1(C)C=Cc2c(ccc3c2OC[C@H]2c4ccc(OCCN5CCNCC5)cc4O[C@@H]32)O1 | > 10 µM | > 10 µM | > 10 µM | > 10 µM | > 10 µM | > 10 µM | – | – | – | –
CC1(C)C=Cc2c(ccc3c2OC[C@H]2c4ccc(N)cc4O[C@@H]32)O1 | > 10 µM | > 10 µM | > 10 µM | > 10 µM | > 10 µM | > 10 µM | – | – | – | –
COCCOc1ccc2c(c1)O[C@H]1c3ccc4c(c3OC[C@@H]21)C=CC(C)(C)O4 | > 10 µM | > 10 µM | > 10 µM | > 10 µM | > 10 µM | > 10 µM | – | – | – | –
CC1(C)C=Cc2cc3c(cc2O1)OC[C@H]1c2ccc(OCCN4CCOCC4)cc2O[C@@H]31 | > 10 µM | > 10 µM | > 10 µM | > 10 µM | > 10 µM | > 10 µM | – | – | – | –
CC1(C)C=Cc2cc3c(cc2O1)OC[C@H]1c2ccc(O)cc2O[C@@H]31 [NEORAUTENOL] | 24.2 µM | 28.5 µM | 15 µM | 53.1 µM | 17.4 µM | 24.6 µM | – | – | – | –
CC1(C)C=Cc2c(ccc3c2OC[C@H]2c4ccc(O)cc4O[C@@H]32)O1 [SHINPTEROCARPIN] | 28 µM | 30.4 µM | 18.3 µM | 52.8 µM | 22.4 µM | 21.6 µM | – | – | – | –

— ChEMBL document CHEMBL5321248, “Syntheses and antitumor activities of neorautenol and shinpterocarpin analogs” (Bioorg Med Chem Lett, 2023)
